Measured values published in patent US9018214B2, “Bicyclic heterocycle compounds and their uses in therapy” (Astex Therapeutics Limited, priority 2011, dated 2015).
Structures can show the parent of a compound that is named as a salt. Where two headings read alike, the source gives them in different places.

Experiments:
[1] = target: BIR3 domain of human cIAP-1 (residues 267-363) (Homo sapiens (Human), UniProt Q13490); test: cIAP-1 in vitro competitive displacement binding assay (fluorescence polarization; Probe A AVPIK(5&6FAM)-amide or Probe B AbuRPFK(5&6FAM)-amide)
[2] = system: EVSA-T (human breast carcinoma); test: Anti-proliferative activity, Alamar Blue assay, EVSA-T; type: cell-based; details: Homo sapiens, EVSA-T; for EC50: 72 h
[3] = Probe B AbuRPFK(5&6FAM)-amide, read-out: IC50 or PI cIAP1: IC50
[4] = 3 h, Probe B, @ 0.012 μM, read-out: IC50 or PI cIAP1: PI
[5] = Probe A AVPIK(5&6FAM)-amide, read-out: IC50 or PI cIAP1: IC50
[6] = read-out: EC50, inhibition of cell growth
[7] = 3 h, read-out: IC50 or PI cIAP1: PI

For `C[C@@H]1CN(CC(=O)N2CC(C)(COCc3ccccc3)c3cnc(Cc4ccccc4)cc32)[C@@H](C(=O)N(C)C)CN1` (stereo partly drawn) [Example 104, (2R,5R)-1-(2-{6-Benzyl-3-[(benzyloxy)methyl]-3-methyl-1H,2H,3H-pyrrolo[3,2-c]pyridin-1-yl}-2-oxoethyl)-N,N,5-trimethylpiperazine-2-carboxamide, hydrochloride salt], the inhibition at 0.01 µM ([1]; 3 h, Probe B, @ 0.01 μM, read-out: IC50 or PI cIAP1: PI) was 71% and the EC50 ([2]; read-out: EVSA-T prolif (EC50)) was 490 nM.

`C[C@@H]1CN(CC(=O)N2CC(C)(C)c3cnc(Cc4ccccc4)cc32)[C@@H](C(=O)N(C)C)CN1` [Example 99, (2R,5R)-1-(2-{6-Benzyl-3,3-dimethyl-1H,2H,3H-pyrrolo[3,2-c]pyridin-1-yl}-2-oxoethyl)-N,N,5-trimethylpiperazine-2-carboxamide, hydrochloride salt] showed an IC50 [1, 3] of 12 nM and an EC50 ([2]; read-out: EVSA-T prolif (EC50)) of 180 nM.

`CCC(F)(F)c1cnc2c(c1)N(C(=O)CN1C[C@@H](C)NC[C@@H]1CN1CCCC1=O)CC2(C)C` [Example 190, 1-{[(2R,5R)-1-{2-[6-(1,1-Difluoropropyl)-3,3-dimethyl-1H,2H,3H-pyrrolo[3,2-b]pyridin-1-yl]-2-oxoethyl}-5-methylpiperazin-2-yl]methyl}pyrrolidin-2-one hydrochloride] was tested, and the IC50 ([1]; read-out: IC50 or PI cIAP1: IC50) was 29 nM and the EC50 ([2]; read-out: EVSA-T prolif (EC50)) was 400 nM.

For `CCCC(F)(F)c1cnc2c(c1)N(C(=O)CN1C[C@@H](C)NC[C@@H]1CN1CCOCC1)CC2(C)C` [Example 238, 1-[6-(1,1-Difluorobutyl)-3,3-dimethyl-1H,2H,3H-pyrrolo[3,2-b]pyridin-1-yl]-2-[(2R,5R)-5-methyl-2-(morpholin-4-ylmethyl)piperazin-1-yl]ethan-1-one hydrochloride], the inhibition at […] [1, 4] was 69% and the EC50 ([2]; read-out: EVSA-T prolif (EC50)) was 68 nM.

`C[C@@H]1CN(CC(=O)N2CCc3ccc(Cc4ccccc4)cc32)CCN1` [Example 29, 1-(6-Benzyl-2,3-dihydro-indol-1-yl)-2-((R)-3-methyl-piperazin-1-yl)-ethanone hydrochloride salt] was tested, and the IC50 [1] was less than 10000 nM, the IC50 [1, 5] was 1400 nM and the EC50 [2, 6] was less than 10000 nM. For the same molecule, the EC50 ([2]; read-out: EVSA-T prolif (EC50)) was 4600 nM.

With `C[C@@H]1CN(CC(=O)N2CC(C)(C)c3ncc(Cc4ccc(F)cc4)cc32)[C@@H](CN2CC[C@@H](F)C2)CN1` [Example 241, 1-{6-[(4-Fluorophenyl)methyl]-3,3-dimethyl-1H,2H,3H-pyrrolo[3,2-b]pyridin-1-yl}-2-[(2R,5R)-2-{[(3R)-3-fluoropyrrolidin-1-yl]methyl}-5-methylpiperazin-1-yl]ethan-1-one dihydrochloride] the inhibition at […] [1, 7] was 98% and the EC50 ([2]; read-out: EVSA-T prolif (EC50)) was 7.2 nM.

`C[C@@H]1CN(CC(=O)N2CCc3cnc(Cc4ccccc4)cc32)CCN1` [Example 35, 1-(6-Benzyl-2,3-dihydro-pyrrolo[3,2-c]pyridin-1-yl)-2-((R)-3-methyl-piperazin-1-yl)-ethanone hydrochloride salt] gave an IC50 [1] of less than 1000 nM, an IC50 [1, 5] of 960 nM and an inhibition at 10 µM ([2]; read-out: EVSA-T prolif: % inhibition) of 28%.

`C[C@@H]1CN(CC(=O)N2CC(C)(C)c3ncc(Cc4ccccc4F)cc32)[C@@H](CN2CC[C@@H](F)C2)CN1` [Example 250, 1-{6-[(2-Fluorophenyl)methyl]-3,3-dimethyl-1H,2H,3H-pyrrolo[3,2-b]pyridin-1-yl}-2-[(2R,5R)-2-{[(3R)-3-fluoropyrrolidin-1-yl]methyl}-5-methylpiperazin-1-yl]ethan-1-one dihydrochloride] gave an inhibition at […] [1, 7] of 89% and an EC50 ([2]; read-out: EVSA-T prolif (EC50)) of 16 nM.

`C[C@@H]1CN(CC(=O)N2CC(C)(C)c3cnc(Cc4ccc(F)cc4F)cc32)[C@@H](CN2CCCC2)CN1` [Example 220, 1-{6-[(2,4-Difluorophenyl)methyl]-3,3-dimethyl-1H,2H,3H-pyrrolo[3,2-c]pyridin-1-yl}-2-[(2R,5R)-5-methyl-2-(pyrrolidin-1-ylmethyl)piperazin-1-yl]ethan-1-one dihydrochloride] showed an EC50 ([2]; read-out: EVSA-T prolif (EC50)) of 49 nM.

`COC[C@H]1CN[C@H](C)CN1CC(=O)N1CC(C)(C)c2cnc(Cl)cc21` [Example 62, 1-(6-Chloro-3,3-dimethyl-2,3-dihydro-pyrrolo[3,2-c]pyridin-1-yl)-2-((2R,5R)-2-methoxy-methyl-5-methyl-piperazin-1-yl)-ethanone hydrochloride salt] was tested, and the EC50 ([2]; read-out: EVSA-T prolif (EC50)) was 3800 nM.

Molecule `C[C@@H]1CN(CC(=O)N2CC(C)(C)c3cnc(Cc4ccc(F)cc4F)cc32)[C@@H](CN2CCCC2=O)CN1` [Example 179, 1-{[(2R,5R)-1-(2-{6-[(2,4-Difluorophenyl)methyl]-3,3-dimethyl-1H,2H,3H-pyrrolo[3,2-c]pyridin-1-yl}-2-oxoethyl)-5-methylpiperazin-2-yl]methyl}pyrrolidin-2-one hydrochloride] has an inhibition at […] [1, 4] of 97% and an EC50 ([2]; read-out: EVSA-T prolif (EC50)) of 4.4 nM.

With `COC[C@H]1CN[C@H](C)CN1CC(=O)N1CC(C)(C)c2cnc(Cc3cccc(OC)c3)cc21` [Example 89, 2-[(2R,5R)-2-(Methoxymethyl)-5-methylpiperazin-1-yl]-1-{6-[(3-methoxyphenyl)methyl]-3,3-dimethyl-1H,2H,3H-pyrrolo[3,2-c]pyridin-1-yl}ethan-1-one, hydrochloride salt] the IC50 [1, 3] was 16 nM and the EC50 ([2]; read-out: EVSA-T prolif (EC50)) was 990 nM.

`COC[C@H]1CN[C@H](C)CN1CC(=O)N1CC(C)(C)c2cc(-c3nc(C)no3)c(Cl)cc21` [Example 141, 1-[6-Chloro-3,3-dimethyl-5-(3-methyl-1,2,4-oxadiazol-5-yl)-2,3-dihydro-1H-indol-1-yl]-2-[(2R,5R)-2-(methoxymethyl)-5-methylpiperazin-1-yl]ethan-1-one] showed an IC50 [1, 3] of 280 nM, an EC50 [2, 6] of less than 10000 nM and an EC50 ([2]; read-out: EVSA-T prolif (EC50)) of 9000 nM.

Molecule `COC[C@H]1CN[C@H](C)CN1CC(=O)N1CC(C)(C)c2cnc(Cc3cccc(C#N)c3)cc21` [Example 80, 3-[(1-{2-[(2R,5R)-2-(Methoxymethyl)-5-methylpiperazin-1-yl]acetyl}-3,3-dimethyl-1H,2H,3H-pyrrolo[3,2-c]pyridin-6-yl)methyl]benzonitrile hydrochloride salt] has an IC50 [1, 3] of 33 nM and an EC50 ([2]; read-out: EVSA-T prolif (EC50)) of 780 nM.

Molecule `CC(C)CC(F)(F)c1cnc2c(c1)N(C(=O)CN1C[C@@H](C)NC[C@@H]1CN1CCCC1=O)CC2(C)C` [Example 216, 1-{[(2R,5R)-1-{2-[6-(1,1-Difluoro-3-methylbutyl)-3,3-dimethyl-1H,2H,3H-pyrrolo[3,2-b]pyridin-1-yl]-2-oxoethyl}-5-methylpiperazin-2-yl]methyl}pyrrolidin-2-one dihydrochloride] has an inhibition at […] [1, 7] of 68% and an EC50 ([2]; read-out: EVSA-T prolif (EC50)) of 51 nM.

`C[C@@H]1CN(CC(=O)N2CC(C)(C)c3cnc(C(C)(F)F)cc32)[C@@H](CN2CCCC2=O)CN1` [Example 184, dihydrochloride] was tested, and the IC50 [1] was less than 1000 nM, the IC50 [1, 3] was 31 nM and the EC50 ([2]; read-out: EVSA-T prolif (EC50)) was 650 nM.

In the case of `COC[C@H]1CN[C@H](C)CN1CC(=O)N1CC(C)(C)c2ccc(Cl)cc21` [Example 44, 1-(6-Chloro-3,3-dimethyl-2,3-dihydro-indol-1-yl)-2-((2R,5R)-2-methoxymethyl-5-methyl-piperazin-1-yl)-ethanone hydrochloride salt], the EC50 ([2]; read-out: EVSA-T prolif (EC50)) is reported as 6600 nM.

Work on `CC(C)CC(F)(F)c1cnc2c(c1)N(C(=O)CN1C[C@@H](C)NC[C@@H]1CN1CCOCC1)CC2(C)C` [Example 235, 1-[6-(1,1-Difluoro-3-methylbutyl)-3,3-dimethyl-1H,2H,3H-pyrrolo[3,2-b]pyridin-1-yl]-2-[(2R,5R)-5-methyl-2-(morpholin-4-ylmethyl)piperazin-1-yl]ethan-1-one] yielded an EC50 ([2]; read-out: EVSA-T prolif (EC50)) of 31 nM.
